The test system of one data set is A549. Kind of data set: Antiproliferative activity against human A549 cell line. The class given is functional.
A further data set relates to PC-3. Description: Antiproliferative activity against human PC3 cell line. The class given is functional.
The next data set concerns MCF7. Description: Antiproliferative activity against human MCF7 cell line. The class given is functional.
In data set [1] the test system is Panel NCI-60 (60 carcinoma cell lines). Kind of data set: Antiproliferative activity against NCI60 cell line. The settings on record: Homo sapiens. The class given is functional.
A further data set deals with HCT-116. Description: Antiproliferative activity against HCT116 cell line. The class given is functional. Particulars: Homo sapiens.
Another data set relates to SF-539. Kind of data set: Antiproliferative activity against human SF539 cell line. The class given is functional.
A further data set deals with UACC-62. Description: Antiproliferative activity against human UACC62 cell line. The class given is functional.
Another data set deals with OVCAR-3. Description: Antiproliferative activity against human OVCAR-3 cell line. The class given is functional.
The subject of the next data set is SN12C. Kind of data set: Antiproliferative activity against human SN12C cell line. The class given is functional.
Data set [2] can be described thus: Half life in rat plasma. The class given is ADME, cell-free.

Broadly, the GI50 is the concentration at which growth is held to half of that of the control. A low value points to more potent growth inhibition. Take `C[C@H]1CCC/C=C/[C@@H]2C[C@H](OC(=O)CCCC(=O)NCCCCCCO)C[C@H]2[C@H](O)/C=C/C(=O)O1`: the concentration for 50% growth inhibition (GI50) in the data set with A549 came out at 700 nM; in the data set on PC-3 it was 330 nM; with MCF7, 180 nM; in [1] it was 470 nM; in the data set with HCT-116 it was 650 nM.

Take `C[C@H]1CCC/C=C/[C@@H]2C[C@H](OC(=O)CCCC(=O)O)C[C@H]2[C@H](OC(=O)CCCC(=O)O)/C=C/C(=O)O1`: the GI50 with A549, in the data set with SF-539, with UACC-62, in the data set with OVCAR-3, with SN12C and in the data set on PC-3 was above 100000 nM in each case. The values for the GI50 (with MCF7; in data set [1]; with HCT-116) were above 100000 nM, 97700 nM and above 100000 nM, respectively.

`C[C@H]1CCC/C=C/[C@@H]2C[C@H](O)C[C@H]2[C@H](OC(=O)CCCC(=O)O)/C=C/C(=O)O1`: the GI50 worked out at 33100 nM in the data set on A549; 31600 nM in the data set with SF-539; 31600 nM in the data set with UACC-62; 36300 nM with OVCAR-3; 30200 nM with SN12C; 43600 nM in the data set with PC-3. In addition, the figures for the GI50 (in the data set on MCF7; in data set [1]; with HCT-116) were 39800 nM, 29500 nM and 25700 nM, respectively.

As usually defined, the half-life is the time needed for the level to fall by half in the phase considered. A lower half-life goes with fast loss. `C[C@H]1CCC/C=C/[C@@H]2C[C@H](O)C[C@H]2[C@H](O)/C=C/C(=O)O1` [BREFELDIN A]: the GI50 was determined as 40 nM with A549; 20 nM with UACC-62; 30 nM in the data set with OVCAR-3; 50 nM with PC-3; 20 nM in the data set with MCF7; 40 nM in data set [1]. Further, in the data set on HCT-116, the GI50 stood at 30 nM. Further, in data set [2], the half-life is above 1440 min.

Turning to `COC(=O)CCCC(=O)O[C@@H]1/C=C/C(=O)O[C@@H](C)CCC/C=C/[C@@H]2C[C@H](O)C[C@H]21`, the 50% growth inhibitory concentration (GI50) was found to be 4170 nM in the data set with A549; 3390 nM in the data set with SF-539; 10 nM in the data set on UACC-62; 2400 nM in the data set with OVCAR-3; 10 nM in the data set with SN12C; 40 nM in the data set with PC-3. The GI50 turned out to be 310 nM in the data set with MCF7, 160 nM in data set [1] and 3470 nM in the data set on HCT-116.

As for `CC(=O)O[C@@H]1C[C@H]2[C@H](O)/C=C/C(=O)O[C@@H](C)CCC/C=C/[C@@H]2C1`, the GI50 in the data set with A549 was found to be 10 nM; in the data set on SF-539, 5250 nM; in the data set on UACC-62, 10 nM; with OVCAR-3 it was 10 nM; with SN12C, 10 nM; with PC-3 it was 40 nM. Besides, the results for the GI50 (in the data set with MCF7; in [1]; with HCT-116) were 20 nM, 40 nM and 1150 nM, respectively. Besides, the half-life in data set [2] was 30 min.

As to `COC(=O)CCCC(=O)O[C@@H]1C[C@@H]2[C@H](/C=C/CCC[C@H](C)OC(=O)/C=C/[C@H]2OC(=O)CCCC(=O)OC)C1`, the concentration for 50% growth inhibition (GI50) turned out to be 12900 nM in the data set with A549; 5010 nM in the data set on SF-539; 4470 nM in the data set on UACC-62; 600 nM in the data set on OVCAR-3; 3020 nM with SN12C; 5010 nM in the data set on PC-3. Also, the 50% growth inhibitory concentration (GI50) with MCF7 worked out at 2570 nM; in data set [1] it was 5100 nM; with HCT-116, 3470 nM.

As to `COC(=O)CCCC(=O)O[C@@H]1C[C@H]2[C@H](O)/C=C/C(=O)O[C@@H](C)CCC/C=C/[C@@H]2C1`, the concentration for 50% growth inhibition (GI50) turned out to be 50 nM in the data set on A549; 70 nM with SF-539; 130 nM in the data set with UACC-62; 30 nM with OVCAR-3; 200 nM with SN12C; 60 nM in the data set with PC-3. Also, the values for the GI50 (with MCF7; in data set [1]; in the data set with HCT-116) were 40 nM, 110 nM and 40 nM, respectively. For the same compound, the half-life in [2] amounted to 3 min.

`C[C@H]1CCC/C=C/[C@@H]2C[C@H](OC(=O)CCCC(=O)O)C[C@H]2[C@H](O)/C=C/C(=O)O1`: the GI50 in the data set on A549 is 33200 nM; with SF-539, 22400 nM; with OVCAR-3, 20400 nM; in the data set with SN12C, 32400 nM; in the data set with PC-3, 19500 nM; in the data set on MCF7 it was 19000 nM. In addition, the results for the concentration for 50% growth inhibition (GI50) (in [1]; with HCT-116) were 13000 nM and 21400 nM, respectively. Further, the half-life in [2] is above 1440 min.

With `CC(=O)O[C@@H]1C[C@@H]2[C@H](/C=C/CCC[C@H](C)OC(=O)/C=C/[C@H]2OC(C)=O)C1`, the 50% growth inhibitory concentration (GI50) in the data set with A549 amounted to 850 nM; in the data set on SF-539 it was 58900 nM; in the data set on UACC-62 it was 10 nM; in the data set with OVCAR-3, 1480 nM; with SN12C, 10 nM; in the data set on PC-3, 2140 nM. The 50% growth inhibitory concentration (GI50) with MCF7 was 2630 nM; in data set [1], 450 nM; with HCT-116 it was 22900 nM.

For the origin of these results see ChEMBL document CHEMBL1138048, “Synthesis and anticancer activity of brefeldin A ester derivatives” (J Med Chem, 2006).
